Measured values from article PMC11840605, “Crystallographic and Thermodynamic Evidence of Negative Coupling in the Flavin-Dependent Tryptophan Halogenases AbeH and BorH” (ACS Omega, 2025).
“Also recorded” adds a separate entry of the source.

Assays:
AbeH/FAD = experiment: Isothermal titration calorimetry, Trp into AbeH preincubated with FAD; format: binding, uncultured soil actinomycetes
Description: ITC experiments were performed using a VP-ITC isothermal titration calorimeter (MicroCal) in 20 mM HEPES pH 7.5, 350 mM NaCl, 1 mM ethylenediamine tetraacetic acid (EDTA) and 15% (v/v) glycerol. Solutions of AbeH, BorH, FAD (Chem-Implex), and Trp (Acros Organics) were prepared in the same buffer and degassed under vacuum at 30 °C for 20 min before loading in the syringe or cell. To analyze formation of binary complexes, AbeH or BorH was placed inside the cell, and ligand (FAD or Trp) was injected. For ternary complex titration, one ligand was preincubated with the macromolecule for 30 min at 30 °C to form binary complexes of AbeH/FAD, AbeH/Trp, BorH/FAD, and BorH/Trp before titrating with the second ligand. […] Formation of FADH2 by sodium dithionite was verified using absorbance and fluorescence spectrophotometry.
ITC experiments were performed with reference power set to 10 μcal/s and Milli-Q water in the reference cell. […] Heats of dilution for all titrants were measured by titrating ligand into buffer for binary complex titrations, and by titrating ligand into a solution containing the other ligand but no protein for ternary complex titration. […]
Titrations were analyzed by manually integrating each injection, subtracting the heat of dilution, and carrying out nonlinear least-squares fit of the calorimetric binding data to a one-site model using Origin 7.0 (Origin Lab). […]

AbeH = AbeH (uncultured bacterium, UniProt F6LWA5); experiment: In vitro halogenation of Trp by AbeH, 1 h reaction, RP-HPLC/MS; format: biochemical, uncultured soil actinomycetes
Chain of AbeH (F6LWA5 entry or part of it): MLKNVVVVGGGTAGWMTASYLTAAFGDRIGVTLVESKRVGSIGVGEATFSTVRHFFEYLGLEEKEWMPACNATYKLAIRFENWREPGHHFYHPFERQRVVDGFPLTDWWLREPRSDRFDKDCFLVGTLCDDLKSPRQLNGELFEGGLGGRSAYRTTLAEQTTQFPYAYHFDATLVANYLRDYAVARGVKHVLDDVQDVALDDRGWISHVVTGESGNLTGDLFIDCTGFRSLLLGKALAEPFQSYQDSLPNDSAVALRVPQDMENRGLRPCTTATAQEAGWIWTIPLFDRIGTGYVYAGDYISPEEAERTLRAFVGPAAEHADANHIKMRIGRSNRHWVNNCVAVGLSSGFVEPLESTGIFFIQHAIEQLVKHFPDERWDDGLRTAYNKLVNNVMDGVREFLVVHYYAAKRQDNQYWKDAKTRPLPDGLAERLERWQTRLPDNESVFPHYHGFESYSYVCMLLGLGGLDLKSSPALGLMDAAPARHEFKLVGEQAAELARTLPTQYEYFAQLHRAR
Description: In vitro halogenation reactions contained 7 μM AbeH, 13 μM holo-AbeF (∼20% saturated with FAD), 2.5 mM NADH, 0.5 mM Trp, 50 mM NaCl or NaBr in 10 mM Tris-HCl pH 8.2 in a final volume of 100 μL. Reactions were initiated by addition of NADH and incubated with 200 rpm shaking at 37 °C for 1 h. Reactions were stopped by heating to 95 °C for 10 min followed by centrifugation at 10,000g for 5 min. Reaction mixtures were analyzed by RP-HPLC using a Kromasil C18 RP-analytical column (100 Å pore size, 4.6 × 250 mm) mounted on a Waters 2695 HPLC. Separation used a 14 min gradient from 5% B to 100% B (Solvent A = H2O/CH3CN 95:5, 0.1% TFA; Solvent B = H2O/CH3CN 5/95, 0.1% TFA) with flow rate 0.6 mL/min. Trp, 5-Cl-Trp, and 5-Br-Trp peaks were monitored with absorbance at 280 nm and retention times and yields were analyzed with using retention times and peak areas from standard curves of authentic standards of Trp (ACROS Organics), 5-Cl-Trp (Santa Cruz Biotechnology) and 5-Br-Trp (Santa Cruz Biotechnology). RP-HPLC purified 5-Cl-Trp and 5-Br-Trp peaks from in vitro halogenation reactions were analyzed on a Waters SYNAPT HDMS mass spectrometer using positive ion-mode ESI-MS with leucine enkephalin as internal standard.
Figure S2: AbeH chlorinates and brominates Trp in vitro.
In vitro halogenation reactions were performed with […], […], 2.5 mM NADH, 50 mM NaCl or NaBr in 10 mM Tris-HCl pH 8.2 at 37 °C shaking at 200 rpm with final volume of […]. Standards and reactions were analyzed on a Kromasil C18 column (100 Å pore size, 4.6 x 250 mm) mounted on a Waters HPLC using a 14 min gradient from 5% -100% B (Solvent A:5% CH3CN+0.1% TFA; Solvent B:95% CH3CN+0.1% TFA) with flow rate 0.6 mL/min using 90 µL injections. Baseline subtracted peak integration was performed on Empower software (Waters). (A) Trp standard (tR = 10.3 min). (B) 5-Cl-Trp standard (tR =11.3 min). (C) 5-Br-Trp standard (tR = 11.4 min). (D) 60 min AbeH in vitro chlorination reaction of 0.5 mM Trp (tR = 11.3 min, 100% conversion to 5-Cl-Trp). […]

## N[C@@H](Cc1c[nH]c2ccccc12)C(=O)O [Tryptophan, L-tryptophan]
AbeH/FAD; 27 mM Trp into 48 μM AbeH preincubated with 3.3 mM FAD, listed as Trp
  Binding of Trp to preincubated AbeH/FAD by ITC, in words: No binding was observed; also recorded: no evidence of Trp binding
AbeH/FAD; AbeH preincubated with FAD
  KD, Trp binding to AbeH/FAD, ITC: no binding
AbeH; 60 min AbeH bromination reaction of 0.5 mM Trp, 50 mM NaBr
  Conversion to 5-Br-Trp: ~ 80%
AbeH; 60 min AbeH chlorination reaction of 0.5 mM Trp, 50 mM NaCl
  Conversion to 5-Cl-Trp: 100%
AbeH; NaI
  Product formation by AbeH when NaCl was replaced with NaI: No product peak was observed
